Experimental data published in patent US20070123462A1, “Effects of tissue transglutaminase on beta-amyloid-induced apoptosis” (Cornell Research Foundation, Inc., priority 2005, published 2007).

What was measured:
[1] = tested on: RA-differentiated SH-SY5Y cells; type: cell-based
Description: (§1) To induce differentiation, human SH-SY5Y cells were cultured in phenol red-free, low serum media with 20 μM all-trans-retinoic acid (RA; Sigma) every other day for 6 days. When assaying cell viability, the cells were plated in 96-well dishes at a seeding density of approximately 5×10^3 cells per well, differentiated with 20 μM RA, and then treated with either media alone, 25 μM monodansyl cadaverine (MDC), β-amyloid1-42 (2.5, 5, and 10 μM) (HPLC-purified from American Peptide, Sunnyvale, Calif.), or with 25 μM MDC and different concentrations of β-amyloid1-42. Typically, β-amyloid1-42 was reconstituted in […] and then further diluted into cell culture media, using conditions that have been reported to give rise primarily to β-amyloid oligomers and large aggregates rather than fibrils (Dahlgren et al., J. Biol. Chem. 277:32046-32053 (2002); Stine et al., J. Biol. Chem. 278:11612-11622 (2003), which are hereby incorporated by reference in their entirety). However, in some cases, β-amyloid1-42 was first dissolved in 100% hexafluoroisopropanolol to ensure the elimination of any preexisting aggregates ((Dahlgren et al., J. Biol. Chem. 277:32046-32053 (2002); Stine et al., J. Biol. Chem. 278:11612-11622 (2003), which are hereby incorporated by reference in their entirety) and then this solvent was removed by evaporation prior to reconstituting the peptide in Me2SO. Cells were incubated with the reconstituted β-amyloid1-42 for 48 hours and cell viability was then assayed by the reduction of 3-(4,5-dimethylthiazole-2-yl)-2,5-diphenyltetrazolium bromide (MTT), as previously described in Miller et al., Brain Res. 963:43-56 (2003), which is hereby incorporated by reference in its entirety. The effects of H2O2 (10-30 μM) on cell viability were assayed in a similar manner (Tamagno et al., Exp Neurol 180:144-155 (2003), which is hereby incorporated by reference in its entirety). Values for untreated controls were set at 100% viability and each treatment was assessed as a percentage of the control values (+/−SD). Each treatment was performed in triplicate and evaluated by using a one-way analysis of variation (ANOVA) with Turkey's post hoc analysis to determine differences between the groups with the a value set at 0.05.

caspase-3 = assay: Caspase activation immunoblot in SH-SY5Y cells; type: cell-based, human
Excerpt: FIGS. 6A-B depict characterization of β-amyloid1-42. […] The β-amyloid was either directly reconstituted in Me2SO or was pre-treated with hexafluoroisopropanol (HFIP) and dessicated prior to reconstitution in Me2SO. […] Activated caspase-3 was detected using a rabbit polyclonal antibody from Cell Signaling (Danvers, Mass.).
FIGS. 9A-B show changes in transglutaminase activity during β-amyloid-induced apoptosis. […] Experimental conditions in FIG. 9B were similar to those described in FIG. 9A, except cells were treated with H2O2 rather than BA for 24 hours.

TGase [2] = assay: In vivo (cellular) transamidation assay with 5-(biotin-amido)-pentylamine; type: cell-based, human
Description: The in vivo transamidation assays were performed as previously described in Antonyak et al., J. Biol. Chem. 279:41461-41467 (2004), which is hereby incorporated by reference in its entirety. […] The membranes were then incubated with horseradish-peroxidase-conjugated streptavidin (2 mg/ml; Pierce Inc., Rockford, Ill.) (diluted 1:2000) in BBST for 2 hours at room temperature, followed by washing (three times) for 20 minutes with BBST.

guinea pig liver TGase = target: T1, guinea pig liver TGase (Cavia cutleri, UniProt P08587); assay: In vitro transamidation (cross-linking) of β-amyloid1-42 by TGase, immunoblot; type: biochemical
T1 construct: 0.1 μg of guinea pig liver TGase (Sigma); purchased Sigma; host or cells: guinea pig liver
T1 sequence (P08587 2-690): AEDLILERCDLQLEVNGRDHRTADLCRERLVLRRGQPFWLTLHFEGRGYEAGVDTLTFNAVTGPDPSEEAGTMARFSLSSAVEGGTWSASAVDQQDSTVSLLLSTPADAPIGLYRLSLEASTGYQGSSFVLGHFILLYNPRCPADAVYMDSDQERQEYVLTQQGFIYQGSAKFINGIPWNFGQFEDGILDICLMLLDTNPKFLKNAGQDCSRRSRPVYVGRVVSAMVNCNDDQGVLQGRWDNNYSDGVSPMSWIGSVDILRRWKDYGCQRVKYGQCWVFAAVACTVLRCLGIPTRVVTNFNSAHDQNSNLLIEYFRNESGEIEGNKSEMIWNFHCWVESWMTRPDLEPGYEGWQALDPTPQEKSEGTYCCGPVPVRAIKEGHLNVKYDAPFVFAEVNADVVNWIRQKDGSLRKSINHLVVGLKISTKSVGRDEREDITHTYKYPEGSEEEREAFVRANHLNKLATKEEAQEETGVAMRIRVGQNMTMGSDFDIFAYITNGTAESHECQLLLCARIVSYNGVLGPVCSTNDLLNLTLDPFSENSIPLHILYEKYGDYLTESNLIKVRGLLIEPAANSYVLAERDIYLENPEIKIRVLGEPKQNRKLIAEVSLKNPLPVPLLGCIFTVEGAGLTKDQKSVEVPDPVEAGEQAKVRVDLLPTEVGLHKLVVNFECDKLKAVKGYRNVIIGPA
Description: FIGS. 11A-B illustrate examination of the cross-linking of β-amyloid by TGase.
The in vitro transamidation reactions were performed with one or all of the following: 1 μg of β-amyloid1-42, 0.1 μg of guinea pig liver TGase (Sigma), 500 μM CaCl2, and/or 50 μM MDC. Each reaction was performed in 50 mM Tris-HCl, pH 7.2, and incubated for 60 minutes at 37° C. The reactions were stopped by the addition of an equal volume of 20% SDS and 10 μl of Laemmeli's sample buffer and immediately boiled for 20 minutes to break up any non-covalent aggregation of β-amyloidi1-42. SDS-PAGE was performed on the samples, followed by blotting onto nitrocellulose membranes (Amersham). The membranes were immunoblotted with anti-β-amyloid antibody.

c-Jun kinase (JNK) = c-Jun kinase (JNK) activity in β-amyloid-treated cells; type: cell-based, human; conditions: β-amyloid1-42-treated cells
TGase [3] = assay: TGase expression and level in SH-SY5Y cells and cell fractions (immunoblot); type: cell-based, human
Description: as §1, with “Cells were incubated with the reconstituted β-amyloid1-42 for 48 hours and cell viability was then assayed by the reduction of 3-(4,5-dimethylthiazole-2-yl)-2,5-diphenyltetrazolium bromide (MTT), as previously described in Miller et al., Brain Res. 963:43-56 (2003), which is hereby incorporated by reference in its entirety. The effects of H2O2 (10-30 μM) on cell viability were assayed in a similar manner (Tamagno et al., Exp Neurol 180:144-155 (2003), which is hereby incorporated by reference in its entirety).” left out, “(+/-SD).” for “(+/−SD).”, “0.05. SH-SY5Y cells, treated with and without β-amyloid1-42 for 48 hours, were lysed by freeze/thawing using liquid nitrogen in a 0.25 M sucrose solution containing 1 mM dithiothreitol, 1 μg/ml aprotinin, 1 μg/ml leupeptin and 100 μM phenylmethylsulfonyl fluoride. […]” for “0.05.”

SH-SY5Y cells = assay: Nuclear condensation or blebbing apoptosis assay; type: cell-based, human; conditions: 5 μM β-amyloid1-42, 48 hours; compared to control cells
Excerpt: Construction of the pcDNA3 Myc-tagged vector used herein has been described in Tu et al., J. Biol. Chem. 278:49293-49300 (2003), which is hereby incorporated by reference in its entirety. Insertion of the TGase cDNA into the vector was accomplished by performing BamHI and EcoRI restriction-site digestion of the previously generated pTRE TGase (wild-type) vector (Antonyak et al., J. Biol. Chem. 276:33582-33587 (2001), which is hereby incorporated by reference in its entirety) to excise the cDNA encoding wild-type TGase, followed by subcloning it into the pcDNA3 Myc-tagged vector using T4 DNA ligase (Invitrogen, Carlsbad, Calif.). The pcDNA3-Myc-TGase vector was used to generate the transamidation-defective (C277V) mutant with the Quikchange site-directed mutagenesis kit (Stratagene, La Jolla, Calif.). Each TGase construct was sequenced to confirm the presence or absence of the mutation. […]
Immunofluorescence was also performed 48 hours after transient transfections with TGase constructs. […] Cells expressing the various TGase constructs were counted from three separate experiments (over 100 cells from each slide were scored) after β-amyloid1-42 treatment and the apoptotic rate was assessed relative to the percentage of apoptosis for untreated (transfected) cells. […]

[4] = H2O2 20 μM, 24 hours, RA-differentiated SH-SY5Y
[5] = 2.5-10 μM β-amyloid1-42, 48 hours

OO [H2O2, hydrogen peroxide] was tested, and the “reduction of cell viability” value [1, 4] was 30-40%, the caspase activation (caspase-3; 30 μM H2O2, 24 hours, RA-differentiated SH-SY5Y) was “resulted in caspase activation” and the cytosolic transamidation activity (TGase [2]; H2O2, 24 hours) was “significant increase”.
CN(C)c1cccc2c(S(=O)(=O)NCCCCCN)cccc12 [MDC, monodansyl cadaverine] was tested, and the “difference in cell viability in the presence or absence of MDC, 5 μM BA” value ([1]; 25 μM MDC, 5 μM BA, 48 hours, p=0.027) was “significant difference”, the “difference in cell viability in the presence or absence of MDC, 10 μM BA” value ([1]; 25 μM MDC, 10 μM BA, 48 hours, p=0.022) was “significant difference” and the “effect of MDC on H2O2-induced cytotoxicity” value [1, 4] was “greatly enhanced cytotoxicity”. For the same molecule, the “TGase-catalyzed oligomerization (transamidation) of β-amyloid1-42” value (guinea pig liver TGase; 50 μM MDC, 0.1 μg TGase, 1 μg BA, 500 μM Ca2+, 60 minutes) was “completely eliminated”, the “effect of MDC on β-amyloid1-42 activation of caspases” value (caspase-3; β-amyloid1-42-treated cells) was “did not block” and the “effect of MDC on β-amyloid1-42 stimulation of c-Jun kinase (JNK) activity” value (c-Jun kinase (JNK)) was “did not block”.
For CC1=C(/C=C/C(C)=C/C=C/C(C)=C/C(=O)O)C(C)(C)CCC1 [RA, all-trans-retinoic acid], the TGase expression (TGase [3]; 20 μM RA, SH-SY5Y in low serum media) was “significant up-regulation”.
For “β-amyloid1-42: most abundant and naturally occurring form of β-amyloid; HPLC-purified from American Peptide”, the “transamidation substrate for TGase in vitro” value (guinea pig liver TGase; Ca2+ levels below 1 mM) was “effective transamidation substrate”, the “apoptotic response read out by caspase-3 activation” value (caspase-3; oligomeric β-amyloid1-42, 37° C.) was “induced an apoptotic response” and the “levels of TGase in the membrane/particulate fractions” value (TGase [3]; [5]) was “dramatically increased”. For the same molecule, the TGase expression (TGase [3]; β-amyloid1-42 48 hours, absence or presence of RA) was “no effect”, the “percentage of cells undergoing apoptosis” value (SH-SY5Y cells) was “increased” and the “production of BPA conjugates (transamidation activity) in the membrane/particulate fractions” value (TGase [2]; [5]) was “marked enhancement”.
